From patent publication US10227357B2, “Compounds and methods for kinase modulation, and indications therefor” (Plexxikon Inc., priority 2012, dated 2019)

What was measured:
c-kit kinase = target: T1, c-kit kinase (Homo sapiens, UniProt P10721); assay: c-Kit biochemical assay, AlphaScreen, 10 μM ATP; details: c-kit biochemical inhibitory activity; read-out: Biochemical activity (IC50 μM) Kit
T1 construct: The c-kit (or kinase domain thereof) is an active kinase in AlphaScreen; poly-Histidine tag (in-house protein only) (cleaved yes); host or cells: E. coli BL21(DE3)RIL, co-expressed with PTP1B
T1 sequence (P10721 26-976): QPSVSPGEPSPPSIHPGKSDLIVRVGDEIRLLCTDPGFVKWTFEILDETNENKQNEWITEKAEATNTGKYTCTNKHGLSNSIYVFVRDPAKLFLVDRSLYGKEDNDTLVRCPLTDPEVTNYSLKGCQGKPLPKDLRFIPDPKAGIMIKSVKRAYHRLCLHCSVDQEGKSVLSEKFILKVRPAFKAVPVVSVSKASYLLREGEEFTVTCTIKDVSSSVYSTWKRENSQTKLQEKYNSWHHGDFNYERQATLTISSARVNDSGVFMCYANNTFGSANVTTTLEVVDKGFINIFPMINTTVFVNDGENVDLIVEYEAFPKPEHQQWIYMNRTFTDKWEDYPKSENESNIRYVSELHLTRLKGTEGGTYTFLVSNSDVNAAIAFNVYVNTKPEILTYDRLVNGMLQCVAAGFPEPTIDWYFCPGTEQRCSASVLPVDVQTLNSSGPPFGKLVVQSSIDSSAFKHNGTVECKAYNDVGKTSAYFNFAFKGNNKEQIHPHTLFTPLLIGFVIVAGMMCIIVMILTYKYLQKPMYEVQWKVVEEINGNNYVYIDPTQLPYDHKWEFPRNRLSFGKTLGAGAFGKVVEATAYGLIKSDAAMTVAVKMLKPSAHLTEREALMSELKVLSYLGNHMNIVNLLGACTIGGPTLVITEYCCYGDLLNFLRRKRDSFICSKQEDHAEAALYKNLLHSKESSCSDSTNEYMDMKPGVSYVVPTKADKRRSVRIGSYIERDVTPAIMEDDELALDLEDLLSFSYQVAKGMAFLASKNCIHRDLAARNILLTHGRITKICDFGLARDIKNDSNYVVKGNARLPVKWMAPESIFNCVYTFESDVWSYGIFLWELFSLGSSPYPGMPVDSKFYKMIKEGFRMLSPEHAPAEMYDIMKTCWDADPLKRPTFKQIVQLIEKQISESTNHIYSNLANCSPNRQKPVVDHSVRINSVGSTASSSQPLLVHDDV
In short: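 His-tagged c-Kit expressed in E. coli with co-expressed PTP1B (dephosphorylated), tag removed; 0.1 ng per reaction with biotinylated-peptide substrate in 50 mM HEPES pH 7.2, 5 mM MgCl2, 5 mM MnCl2, 5% DMSO, 10 μM ATP, 1 h at room temperature. Phosphorylation detected by AlphaScreen (streptavidin donor, PY20 acceptor beads); IC50 from 8-point 1:3 dilution series.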

c-kit mutant D816V = target: T2, c-kit mutant D816V (Homo sapiens, UniProt P10721, D816V/DEL694-753); assay: c-Kit mutant D816V biochemical assay, AlphaScreen; details: c-kit D816V biochemical inhibitory activity; read-out: Biochemical activity (IC50 μM) Kit D816V
T2 construct: residues 551-934, kinase insertion domain residues 694-753 deleted; 6x-histidine (N); made in house; host or cells: E. coli Arctic Express (DE3) RIL (Stratagene)
T2 sequence (P10721 with tags, fused parts or gaps DEL694-753/D816V): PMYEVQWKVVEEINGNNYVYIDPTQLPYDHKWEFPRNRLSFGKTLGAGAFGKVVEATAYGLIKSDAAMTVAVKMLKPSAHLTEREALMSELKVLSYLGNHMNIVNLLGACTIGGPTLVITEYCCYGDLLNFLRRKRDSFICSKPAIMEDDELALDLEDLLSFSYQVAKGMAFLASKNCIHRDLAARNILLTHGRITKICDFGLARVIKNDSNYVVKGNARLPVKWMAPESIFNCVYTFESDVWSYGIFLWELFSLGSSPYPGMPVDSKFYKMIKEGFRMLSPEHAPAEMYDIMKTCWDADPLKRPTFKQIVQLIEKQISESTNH
In short: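 Purified His-tagged c-Kit D816V (E. coli-expressed) assayed in 25 mM HEPES pH 7.2 with Mg/Mn, 5% DMSO and 10 μM ATP, 30 min at room temperature, 8-point 1:3 dilutions. Phosphorylation detected by AlphaScreen with streptavidin donor and PY20 acceptor beads; IC50 from signal versus concentration.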

| SMILES | IC50 (c-kit kinase) [µM] | IC50 (c-kit mutant D816V) [µM] |
| --- | --- | --- |
| C[C@H](NC(=O)N1CCN(c2ncnc3[nH]c(-c4ccc(F)cc4)cc23)CC1)c1cccc(N(C)C)c1 [P-0016, N-[(1S)-1-[3-(dimethylamino)phenyl]ethyl]-4-[6-(4-fluorophenyl)-7H-pyrrolo[2,3-d]pyrimidin-4-yl]piperazine-1-carboxamide] | 1 to 10 | 0.0001 to 1 |
| O=C(Nc1ccc(OC(F)(F)F)cc1)N1CCN(c2ncnc3[nH]c(-c4ccncc4)cc23)CC1 [P-0102, 4-[6-(4-pyridyl)-7H-pyrrolo[2,3-d]pyrimidin-4-yl]-N-[4-(trifluoromethoxy)phenyl]piperazine-1-carboxamide] | 0.0001 to 1 | 1 to 10 |
| C[C@@H]1CN(c2ncnc3[nH]c(-c4ccncc4)cc23)CCN1C(=O)Nc1ccc(F)c(Cl)c1 [P-0062, (2R)-N-(3-chloro-4-fluoro-phenyl)-2-methyl-4-[6-(4-pyridyl)-7H-pyrrolo[2,3-d]pyrimidin-4-yl]piperazine-1-carboxamide] | 1 to 10 | 0.0001 to 1 |
| CS(=O)(=O)Nc1ccc(-c2ncnc3cc(C4=CCN(C(=O)N5CCOCC5)CC4)sc23)cc1 [P-0555, N-[4-[6-[1-(morpholine-4-carbonyl)-3,6-dihydro-2H-pyridin-4-yl]thieno[3,2-d]pyrimidin-4-yl]phenyl]methanesulfonamide] | 0.0001 to 1 | 0.0001 to 1 |
| CC(=N)Nc1ccc(-c2ncnc3cc(C4=CCN(C(=O)N5CCOCC5)CC4)sc23)cc1 [P-0559, N-[4-[6-[1-(morpholine-4-carbonyl)-3,6-dihydro-2H-pyridin-4-yl]thieno[3,2-d]pyrimidin-4-yl]phenyl]acetamidine] | 10 to 200 | 0.0001 to 1 |
| Cc1nn(C)cc1-c1cc2c(N3CCN(C(=O)N[C@@H](C)c4ccc(Cl)cc4)[C@H](C)C3)ncnc2[nH]1 [P-0718, (2R)-N-[(1S)-1-(4-chlorophenyl)ethyl]-4-[6-(1,3-dimethylpyrazol-4-yl)-7H-pyrrolo[2,3-d]pyrimidin-4-yl]-2-methyl-piperazine-1-carboxamide] | 0.0001 to 1 | 0.0001 to 1 |
| C[C@H](NC(=O)N1CCN(c2ncnc3[nH]c(-c4ccc(C#N)cc4)cc23)CC1(C)C)c1cccc(F)c1 [P-0688, 4-[6-(4-cyanophenyl)-7H-pyrrolo[2,3-d]pyrimidin-4-yl]-N-[(1S)-1-(3-fluorophenyl)ethyl]-2,2-dimethyl-piperazine-1-carboxamide] | 1 to 10 | 0.0001 to 1 |
| CCCCS(=O)(=O)Nc1ccc(-c2ncnc3[nH]c(-c4ccc(F)cc4)cc23)cc1 [P-0419, N-[4-[6-(4-fluorophenyl)-7H-pyrrolo[2,3-d]pyrimidin-4-yl]phenyl]butane-1-sulfonamide] | 10 to 200 | 0.0001 to 1 |
| COc1ccc([C@@H](C)NC(=O)N2CCN(c3ncnc4[nH]c(-c5ccc(Cl)cc5)cc34)C[C@H]2C)cc1 [P-0019, (2R)-4-[6-(4-chlorophenyl)-7H-pyrrolo[2,3-d]pyrimidin-4-yl]-N-[(1R)-1-(4-methoxyphenyl)ethyl]-2-methyl-piperazine-1-carboxamide] | 10 to 200 | 1 to 10 |
| Cc1cc2c(-c3ccc(NS(=O)(=O)c4ccc(F)c(F)c4)cc3)ncnc2[nH]1 [P-0314, 3,4-difluoro-N-[4-(6-methyl-7H-pyrrolo[2,3-d]pyrimidin-4-yl)phenyl]benzenesulfonamide] | 10 to 200 | 1 to 10 |
| CC1(C)CN(c2ncnc3cc(-c4ccc(F)cc4)sc23)CCN1 [P-0595, 4-(3,3-dimethylpiperazin-1-yl)-6-(4-fluorophenyl)thieno[3,2-d]pyrimidine] | 10 to 200 | 10 to 200 |
| C[C@@H]1CN(c2ncnc3cc(-c4ccc(F)cc4)sc23)CCN1C(=O)NCc1ccc(F)cc1 [P-0602, (2R)-N-[(4-fluorophenyl)methyl]-4-[6-(4-fluorophenyl)thieno[3,2-d]pyrimidin-4-yl]-2-methyl-piperazine-1-carboxamide] | 10 to 200 | 0.0001 to 1 |
| Cc1cc2c(-c3ccc(NS(=O)(=O)c4ccc(Cl)cc4F)c(F)c3)ncnc2[nH]1 [P-0361, 4-chloro-2-fluoro-N-[2-fluoro-4-(6-methyl-7H-pyrrolo[2,3-d]pyrimidin-4-yl)phenyl]benzenesulfonamide] | 0.0001 to 1 | 1 to 10 |
| Cc1nn(C)c(C)c1-c1cc2ncnc(N3CCN(C(=O)NCc4ccc(F)cc4)CC3)c2s1 [P-0618, N-[(4-fluorophenyl)methyl]-4-[6-(1,3,5-trimethylpyrazol-4-yl)thieno[3,2-d]pyrimidin-4-yl]piperazine-1-carboxamide] | 1 to 10 | 1 to 10 |
| Cc1ccc(S(=O)(=O)Nc2ccc(-c3ncnc4[nH]c(-c5ccc(F)cc5)cc34)cc2)cc1 [P-0433, N-[4-[6-(4-fluorophenyl)-7H-pyrrolo[2,3-d]pyrimidin-4-yl]phenyl]-4-methyl-benzenesulfonamide] | 0.0001 to 1 | 0.0001 to 1 |
| COc1ccc(S(=O)(=O)Nc2ccc(-c3ncnc4[nH]c(-c5ccc(F)cc5)cc34)c(F)c2)cc1 [P-0402, N-[3-fluoro-4-[6-(4-fluorophenyl)-7H-pyrrolo[2,3-d]pyrimidin-4-yl]phenyl]-4-methoxy-benzenesulfonamide] | 1 to 10 | 0.0001 to 1 |
| O=S(=O)(Nc1ccc(-c2cc3c(-c4ccc(NS(=O)(=O)C5CC5)cc4F)ncnc3[nH]2)c(F)c1)C1CC1 [P-0387, N-[4-[4-[4-(cyclopropylsulfonylamino)-2-fluoro-phenyl]-7H-pyrrolo[2,3-d]pyrimidin-6-yl]-3-fluoro-phenyl]cyclopropanesulfonamide] | 1 to 10 | 0.0001 to 1 |
| O=C(NCc1ccc(F)cc1)N1CCN(c2ncnc3cc(C4CCN(C(=O)C5CC5)CC4)sc23)CC1 [P-0588, 4-[6-[1-(cyclopropanecarbonyl)-4-piperidyl]thieno[3,2-d]pyrimidin-4-yl]-N-[(4-fluorophenyl)methyl]piperazine-1-carboxamide] | 10 to 200 | 0.0001 to 1 |
| [2H]C([2H])([2H])S(=O)(=O)Nc1ccc(-c2ncnc3[nH]c(-c4ccc(F)cc4)cc23)c(F)c1 [P-0368, 1,1,1-trideuterio-N-[3-fluoro-4-[6-(4-fluorophenyl)-7H-pyrrolo[2,3-d]pyrimidin-4-yl]phenyl]methanesulfonamide] | 0.0001 to 1 | 0.0001 to 1 |
| COc1cccc([C@H](C)NC(=O)N2CCN(c3ncnc4cc(-c5cn(C)nc5C)sc34)C[C@H]2C)c1 [P-0598, (2R)-4-[6-(1,3-dimethylpyrazol-4-yl)thieno[3,2-d]pyrimidin-4-yl]-N-[(1S)-1-(3-methoxyphenyl)ethyl]-2-methyl-piperazine-1-carboxamide] | 1 to 10 | 0.0001 to 1 |
| COc1cc2c(-c3ccc(NS(=O)(=O)N4CCCC4)cc3F)ncnc2cc1OCCCN1CCCCC1 [P-0253, N-[3-fluoro-4-[6-methoxy-7-[3-(1-piperidyl)propoxy]quinazolin-4-yl]phenyl]pyrrolidine-1-sulfonamide] | 1 to 10 | 0.0001 to 1 |
| Cc1nn(C)cc1-c1cc2ncnc(N3CCN(C(=O)N[C@@H](C)c4ccc(F)cc4)[C@H](C)C3)c2s1 [P-0599, (2R)-4-[6-(1,3-dimethylpyrazol-4-yl)thieno[3,2-d]pyrimidin-4-yl]-N-[(1S)-1-(4-fluorophenyl)ethyl]-2-methyl-piperazine-1-carboxamide] | 10 to 200 | 0.0001 to 1 |
| O=S(=O)(Nc1ccc(-c2ncnc3[nH]c(Cl)cc23)cc1)c1ccc(OC(F)F)cc1 [P-0655, N-[4-(6-chloro-7H-pyrrolo[2,3-d]pyrimidin-4-yl)phenyl]-4-(difluoromethoxy)benzenesulfonamide] | 1 to 10 | 1 to 10 |
| CCc1ccc(S(=O)(=O)NC2CCN(c3ncnc4[nH]c(-c5cnn(C)c5)cc34)CC2)s1 [P-0665, 5-ethyl-N-[1-[6-(1-methylpyrazol-4-yl)-7H-pyrrolo[2,3-d]pyrimidin-4-yl]-4-piperidyl]thiophene-2-sulfonamide] | 0.0001 to 1 | 0.0001 to 1 |
| Cc1cc2c(-c3cccc(NS(C)(=O)=O)c3)ncnc2[nH]1 [P-0320, N-[3-(6-methyl-7H-pyrrolo[2,3-d]pyrimidin-4-yl)phenyl]methanesulfonamide] | 10 to 200 | 10 to 200 |
| Cn1cc(-c2cc3c(N4CCC(NS(=O)(=O)c5ccc(C6(C#N)CC6)cc5)CC4)ncnc3[nH]2)cn1 [P-0486, 4-(1-cyanocyclopropyl)-N-[1-[6-(1-methylpyrazol-4-yl)-7H-pyrrolo[2,3-d]pyrimidin-4-yl]-4-piperidyl]benzenesulfonamide] | 1 to 10 | 1 to 10 |
| Cc1cc2c(N3CCN(C(=O)N[C@@H](C)c4cccc(OC(F)F)c4)[C@H](C)C3)ncnc2[nH]1 [P-0648, (2R)-N-[(1S)-1-[3-(difluoromethoxy)phenyl]ethyl]-2-methyl-4-(6-methyl-7H-pyrrolo[2,3-d]pyrimidin-4-yl)piperazine-1-carboxamide] | 10 to 200 | 0.0001 to 1 |
| O=S(=O)(Nc1ccc(-c2ncnc3[nH]c(-c4cc(F)ccc4F)cc23)c(F)c1)c1ccc(Cl)cc1 [P-0337, 4-chloro-N-[4-[6-(2,5-difluorophenyl)-7H-pyrrolo[2,3-d]pyrimidin-4-yl]-3-fluoro-phenyl]benzenesulfonamide] | 10 to 200 | 0.0001 to 1 |
